{"source": "patent US11390629B2", "about": "“1,5-disubstituted 1,2,3-triazoles are inhibitors of Rac/Cdc42 GTPases” (UNIVERSITY OF PUERTO RICO, priority 2016, dated 2022)", "key": {"PAK1 and PAK2": {"system": "PAK1 and PAK2", "test": "Western blot of PAK signaling (p-PAK, p-LIMK, p-cofilin), MDA-MB-231", "format": "cell-based, human", "settings": "for reduction of PAK activity compared to vehicle: MDA-MB-231 and GFP-HER2-BM", "procedure": "To investigate the effect of MBQ-167 on Rac/Cdc42 signaling, its effect on the major Rac/Cdc42 downstream effector PAK was investigated. The phosphorylation status of several PAK residues was analyzed by western blotting, as a measure of its activity. At 250 nM, 24 h treatment with MBQ-167 inhibited PAK1 and PAK2 phosphorylation at the T423/T402 and S199/S192 residues in the detached population of MDA-MB-231 cells. […] Even though PAK1^T423 phosphorylation was not inhibited in the attached cells, the reduction in the homologous PAK2 phosphorylation sites indicates a preferential inhibition of PAK2 in the attached cells (FIGS. 4A-1, 4A-2, FIG. 4B-1). […] The decrease in cofilin phosphorylation was evident after 12 h following 250 nM MBQ-167 (FIG. 4C), indicating activation of cofilin, which account for the observed actin cytoskeletal restructuring (FIG. 2B). […] Similarly, in the NCI-N87 human metastatic gastric cancer cell line, MBQ-167 inhibited the viability and the activity of PAK isoforms PAK1 and PAK4, which have been implicated in gastric cancer malignancy (FIG. 8B)."}, "PAK1 and PAK4": {"system": "PAK1 and PAK4", "test": "Western blot of PAK activity, NCI-N87 gastric cancer cells", "format": "cell-based, human", "settings": "NCI-N87, 250 or 500 nM; listed as MBQ-167", "description": "(§1) FIGS. 8A, 8B. The effect of MBQ-167 on survival and PAK activity in NCI-N87 gastric cancer cells."}, "MDA-MB-231 cells [1]": {"system": "MDA-MB-231 cells", "test": "Cell viability assay (CellTiter 96 / MTT), MDA-MB-231"}, "[2]": {"test": "Cell viability assay (CellTiter 96 / MTT), MDA-MB-231", "settings": "human"}, "[3]": {"system": "c-Myc, Bcl-XL, Bcl-2, BAD", "test": "Expression of oncogenes and survival proteins, MDA-MB-435 cells", "format": "cell-based, human", "settings": "150 nM, 24 h", "description": "Studies from a number of cancer types have shown that Rac/Cdc42/PAK signaling can induce cell survival and evade apoptosis. Therefore, the decreased cell viability and increased apoptosis by MBQ-167, at concentrations that inhibit both Rac and Cdc42, is predicted to be due to dual inhibition of Rac and Cdc42 function."}, "GFP-HER2-BM cells": {"system": "GFP-HER2-BM cells", "test": "Cell viability assay (CellTiter 96 / MTT), GFP-HER2-BM", "format": "cell-based", "settings": "Homo sapiens, 120 h", "description": "Effect of MBQ-167 on cell survival."}, "Bcl-2, Bcl-xL, Mcl-1": {"system": "Bcl-2, Bcl-xL, Mcl-1", "test": "Western blot of pro-survival proteins, MDA-MB-231", "settings": "250 nM, 24 h"}, "[4]": {"system": "GFP-MDA-MB-231 mammary fat pad tumors", "test": "Mammary fat pad tumor growth, GFP-MDA-MB-231 cells in SCID mice", "settings": "50 days"}, "[5]": {"system": "MCF10A mammary epithelial cells", "test": "Cell viability assay (CellTiter 96 / MTT), MCF10A", "settings": "120 h"}, "Cdc42 [6]": {"target": "T1, Cdc42 (Homo sapiens, UniProt P60953)", "T1 sequence (P60953 whole entry)": "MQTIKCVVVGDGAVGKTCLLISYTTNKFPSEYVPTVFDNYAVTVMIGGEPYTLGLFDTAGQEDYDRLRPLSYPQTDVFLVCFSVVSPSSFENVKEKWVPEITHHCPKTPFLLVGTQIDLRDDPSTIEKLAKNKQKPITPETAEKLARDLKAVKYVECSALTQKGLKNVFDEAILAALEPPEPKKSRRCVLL", "test": "Cdc42 activity (Table 1A)", "format": "cell-based", "settings": "class by % inhibition at stated concentration"}, "[7]": {"system": "Saccharomyces cerevisiae (expresses only Cdc42)", "test": "Yeast bud polarity and growth", "settings": "100 microM"}, "Cdc42 [8]": {"target": "T1, Cdc42", "test": "Cdc42 activation pulldown (p21-binding domain of PAK) and western blot, MDA-MB-231 cells", "format": "cell-based", "set-up": "endogenous in cells; host or cells: MDA-MB-231", "settings": "24 h, detached cells"}, "MDA-MB-231 cells [9]": {"system": "MDA-MB-231 cells", "test": "Bright field microscopy of cell polarity, rounding and detachment, MDA-MB-231", "format": "cell-based, human", "procedure": "FIGS. 2A, 2B, 2C. Breast cancer cell phenotype following MBQ-167 treatment.\nHuman breast cancer cells were visualized by bright field microscopy following MBQ-167 treatment. At ≥100 nM, starting at six hours, MBQ-167 induced a loss of polarity in metastatic breast cancer cells. […] On the other hand, non-cancer mammary epithelial MCF10A and epithelial breast cancer MCF-7 cells were resistant to MBQ-167 and remained polarized and attached to each other and the substratum (FIG. 2A).\nFIG. 2A; FIG. 2B. […] At ≥100 nM, starting at six hours MBQ-167 induces a loss of polarity and detachment from the substratum in MDA-MB-231 metastatic breast cancer cells but not in MCF-7 non-metastatic human breast cancer cells. 250 nM MBQ-167 results in ˜70% of the cells losing polarity and assuming a rounded phenotype. Higher concentrations of MBQ-167, i.e. 500 nM for 24 h results in a ˜90% loss in cell polarity and detaches from the substratum."}, "Rac": {"system": "Rac", "test": "Rac activation pulldown (p21-binding domain of PAK) and western blot, MDA-MB-231 cells", "format": "cell-based, human", "settings": "for decrease in Rac activation: 250 nM, 24 h; for inhibition in Rac activity: 250 or 500 nM, 6 h"}, "MDA-MB-231 cells [10]": {"system": "MDA-MB-231 cells", "test": "Transwell cell migration assay, MDA-MB-231", "settings": "250 and 500 nM, attached population"}, "NCI-N87 cells": {"system": "NCI-N87 cells", "test": "MTT viability assay, NCI-N87 gastric cancer cells", "format": "cell-based, human", "settings": "250 nM", "description": "as §1"}}, "note": "Several values for one entry are separate records, joined by “and”; a condition that tells them apart may be missing. Identical values can stand only once. Entries after “also recorded” stand apart in the source; their conditions may differ. Like-named read-outs stand apart in the source and are kept apart here."}
{"smiles": "CCn1c2ccccc2c2cc(-n3nncc3-c3ccccc3)ccc21", "note": "[I-1, 9-ethyl-3-(5-phenyl-1H-1,2,3-triazol-1-yl)-9H-carbazole]", "values": [{"measurement": "LIMK (Y507/T508) and cofilin (S3) phosphorylation", "setting": "PAK1 and PAK2; 250 nM", "result": "both decreased"}, {"measurement": "phosphorylation of PAK1 S144", "setting": "PAK1 and PAK2; 250 nM, 24 h", "result": "dramatic increase"}, {"measurement": "PAK1 and PAK2 phosphorylation at T423/T402 and S199/S192", "setting": "PAK1 and PAK2; 250 nM, 24 h, detached population", "result": "inhibited"}, {"measurement": "reduction of PAK activity compared to vehicle", "setting": "PAK1 and PAK2; attached population", "result": "~25", "unit": "%"}, {"measurement": "reduction of PAK activity compared to vehicle", "setting": "PAK1 and PAK2; detached cells", "result": 90, "unit": "%"}, {"measurement": "effect on PAK activity (phospho-PAK)", "setting": "PAK1 and PAK4", "result": "inhibits both PAK1 and PAK4 activities; also recorded: significantly decreases"}, {"measurement": "cell death", "setting": "MDA-MB-231 cells [1]; 1000 nM, 120 h, all cell types (MDA-MB-231, GFP-HER2-BM, MCF10A)", "result": "~100", "unit": "%"}, {"measurement": "GI50", "setting": "MDA-MB-231 cells [1]; 120 h, listed as MBQ-167", "result": 0.11, "unit": "µM"}, {"measurement": "GI50", "setting": "MDA-MB-231 cells [1]; Homo sapiens, MDA-MB-231, 120 h, 120 h", "result": "~0.13", "unit": "µM"}, {"measurement": "GI50", "setting": "MDA-MB-231 cells [1]; Homo sapiens, MDA-MB-231, read-out: GI50 (μM) MDA-MB-231, MDA-MB-231", "result": 0.128, "unit": "µM"}, {"measurement": "viability at 24 h, 5 µM", "setting": "[2]; MDA-MB-231, GFP-HER2-BM, MCF-7 and MCF-10 cells", "result": "~75", "unit": "%"}, {"measurement": "viability at 24 h, 0.3 µM", "setting": "[2]; MDA-MB-231 cells", "result": 100, "unit": "%"}, {"measurement": "expression of c-Myc, Bcl-XL, Bcl-2", "setting": "[3]", "result": "reduced expression"}, {"measurement": "pro-apoptotic protein BAD", "setting": "[3]", "result": "concomitant increase"}, {"measurement": "GI50", "setting": "GFP-HER2-BM cells", "result": 150, "unit": "nM"}, {"measurement": "expression of pro-survival proteins Bcl-2, Bcl-xL, Mcl-1", "setting": "Bcl-2, Bcl-xL, Mcl-1", "result": "significant decrease"}, {"measurement": "inhibition of tumor growth", "setting": "[4]; 1.0 mg/kg BW i.p. 3x a week", "result": 90, "unit": "%"}, {"measurement": "inhibition of tumor growth", "setting": "[4]; 5.0 mg/kg BW i.p. 3x a week", "result": 95, "unit": "%"}, {"measurement": "inhibition of tumor growth", "setting": "[4]; 10 mg/kg BW i.p. 3x a week", "result": 100, "unit": "%"}, {"measurement": "GI50", "setting": "[5]; Homo sapiens, MCF-10A", "result": 350, "unit": "nM"}, {"measurement": "effect on viability of MCF7 and MCF-10A cells", "setting": "[5]; at the GI50 concentrations of the metastatic cells", "result": "does not affect the viability"}, {"measurement": "Cdc42 activity", "setting": "Cdc42 [6]", "result": "A (>50% inhibition at 250 nM)"}, {"measurement": "effect on yeast bud polarity and growth", "setting": "[7]", "result": "inhibited yeast bud polarity and growth"}, {"measurement": "inhibition of Cdc42 activity", "setting": "Cdc42 [8]; 250 nM, listed as MBQ-167, […]", "result": 85, "unit": "%"}, {"measurement": "inhibition at […]", "setting": "Cdc42 [8]; MDA-MB-231, 250 nM", "result": 78, "unit": "%"}, {"measurement": "cells losing polarity and assuming a rounded phenotype", "setting": "MDA-MB-231 cells [9]; 250 nM", "result": "~70", "unit": "%"}, {"measurement": "cell rounding / loss of polarity and detachment from the substratum", "setting": "MDA-MB-231 cells [9]; 500 nM, 24 h, listed as MBQ-167", "result": "~90% and ~95%"}, {"measurement": "concentration inducing loss of polarity", "setting": "MDA-MB-231 cells [9]; starting at six hours", "result": "≥ 100", "unit": "nM"}, {"measurement": "decrease in Rac activation", "setting": "Rac; attached cells", "result": "~25", "unit": "%"}, {"measurement": "decrease in Rac activation", "setting": "Rac; detached cells", "result": "~75", "unit": "%"}, {"measurement": "inhibition in Rac activity", "setting": "Rac; attached cell population", "result": "10-20%"}, {"measurement": "inhibition in Rac activity", "setting": "Rac; detached population", "result": "40-50%"}, {"measurement": "reduction of directed migration", "setting": "MDA-MB-231 cells [10]", "result": "60-70%"}, {"measurement": "reduction of cell viability", "setting": "NCI-N87 cells; 24 h, listed as MBQ-167", "result": 55, "unit": "%"}, {"measurement": "cytotoxicity at […]", "setting": "NCI-N87 cells; Homo sapiens, NCI-N87, 24 h, read-out: reduction of cell viability", "result": 50, "unit": "%"}]}
